Measured values from PubChem BioAssay (NCI).
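Results reflect a 48-hour exposure of cells in 96-well plates to compound at five concentrations. TGI marks complete inhibition of growth.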

Columns and labels:
Assay in all cases: NCI-60 cell line screen, 48 h
786-0 renal = system: 786-0 renal
A498 renal = system: A498 renal
A549 NSCLC = system: A549 NSCLC
ACHN renal = system: ACHN renal
BT-549 breast = system: BT-549 breast
CAKI-1 renal = system: CAKI-1 renal
CCRF-CEM leukemia = system: CCRF-CEM leukemia
COLO 205 colon = system: COLO 205 colon
DU-145 prostate = system: DU-145 prostate
EKVX NSCLC = system: EKVX NSCLC
HCC-2998 colon = system: HCC-2998 colon
HCT-116 colon = system: HCT-116 colon
HCT-15 colon = system: HCT-15 colon
HL-60(TB) leukemia = system: HL-60(TB) leukemia
HOP-62 NSCLC = system: HOP-62 NSCLC
HOP-92 NSCLC = system: HOP-92 NSCLC
HS 578T breast = system: HS 578T breast
HT29 colon = system: HT29 colon
IGROV1 ovarian = system: IGROV1 ovarian
K-562 leukemia = system: K-562 leukemia
KM12 colon = system: KM12 colon
LOX IMVI melanoma = system: LOX IMVI melanoma
M14 melanoma = system: M14 melanoma
MALME-3M melanoma = system: MALME-3M melanoma
MCF7 breast = system: MCF7 breast
MDA-MB-231 breast = system: MDA-MB-231 breast
MDA-MB-435 = system: MDA-MB-435
MDA-N = system: MDA-N
MOLT-4 leukemia = system: MOLT-4 leukemia
NCI-H226 lung = system: NCI-H226 lung
NCI-H23 lung = system: NCI-H23 lung
NCI-H460 lung = system: NCI-H460 lung
NCI-H522 lung = system: NCI-H522 lung
NCI/ADR-RES ovarian = system: NCI/ADR-RES ovarian
OVCAR-3 ovarian = system: OVCAR-3 ovarian
OVCAR-4 ovarian = system: OVCAR-4 ovarian
OVCAR-5 ovarian = system: OVCAR-5 ovarian
OVCAR-8 ovarian = system: OVCAR-8 ovarian
PC-3 prostate = system: PC-3 prostate
RPMI-8226 leukemia = system: RPMI-8226 leukemia
RXF 393 renal = system: RXF 393 renal
SF-268 CNS = system: SF-268 CNS
SF-295 CNS = system: SF-295 CNS
SF-539 CNS = system: SF-539 CNS
SK-MEL-2 melanoma = system: SK-MEL-2 melanoma
SK-MEL-28 melanoma = system: SK-MEL-28 melanoma
SK-MEL-5 melanoma = system: SK-MEL-5 melanoma
SK-OV-3 ovarian = system: SK-OV-3 ovarian
SN12C renal = system: SN12C renal
SNB-19 CNS = system: SNB-19 CNS
SNB-75 CNS = system: SNB-75 CNS
SR leukemia = system: SR leukemia
SW-620 colon = system: SW-620 colon
T-47D breast = system: T-47D breast
TK-10 renal = system: TK-10 renal
U251 CNS = system: U251 CNS
UACC-257 melanoma = system: UACC-257 melanoma
UACC-62 melanoma = system: UACC-62 melanoma
UO-31 renal = system: UO-31 renal

## CC(C)[Si]1(C(C)C)OCC2OC(N3C(=O)NC(=O)C[C@@H]3C(O)c3ccccc3)CC2O[Si](C(C)C)(C(C)C)O1 (some centres undefined)
786-0 renal
  TGI: 12.5 µM
A498 renal
  TGI: 17.7 µM
A549 NSCLC
  TGI: 24.1 µM
ACHN renal
  TGI: 19.7 µM
BT-549 breast
  TGI: 33.4 µM
CAKI-1 renal
  TGI: 30.7 µM
CCRF-CEM leukemia
  TGI: 8.46 µM
COLO 205 colon
  TGI: 25.8 µM
DU-145 prostate
  TGI: 26.5 µM
EKVX NSCLC
  TGI: 23.4 µM
HCC-2998 colon
  TGI: 4.46 µM
HCT-116 colon
  TGI: 9.79 µM
HCT-15 colon
  TGI: 18.1 µM
HL-60(TB) leukemia
  TGI: 21.6 µM
HOP-62 NSCLC
  TGI: 27.5 µM
HOP-92 NSCLC
  TGI: 20.4 µM
HS 578T breast
  TGI: 8.71 µM
HT29 colon
  TGI: 6.59 µM
IGROV1 ovarian
  TGI: 17.6 µM
K-562 leukemia
  TGI: > 30.2 µM
KM12 colon
  TGI: 7.1 µM
LOX IMVI melanoma
  TGI: 10.7 µM
M14 melanoma
  TGI: 30.1 µM
MALME-3M melanoma
  TGI: 12.8 µM
MCF7 breast
  TGI: 15.2 µM
MDA-MB-231 breast
  TGI: 12.1 µM
MDA-MB-435
  TGI: 18.2 µM
MDA-N
  TGI: 9.61 µM
MOLT-4 leukemia
  TGI: 9.31 µM
NCI-H226 lung
  TGI: 8.9 µM
NCI-H23 lung
  TGI: 21.6 µM
NCI-H460 lung
  TGI: 34.3 µM
NCI-H522 lung
  TGI: 7.77 µM
NCI/ADR-RES ovarian
  TGI: 13.4 µM
OVCAR-3 ovarian
  TGI: 11.4 µM
OVCAR-4 ovarian
  TGI: 14.8 µM
OVCAR-5 ovarian
  TGI: 27.6 µM
OVCAR-8 ovarian
  TGI: 17.3 µM
PC-3 prostate
  TGI: 15.3 µM
RPMI-8226 leukemia
  TGI: 12.2 µM
RXF 393 renal
  TGI: 13.4 µM
SF-268 CNS
  TGI: 10.6 µM
SF-295 CNS
  TGI: 9.97 µM
SF-539 CNS
  TGI: 32.4 µM
SK-MEL-2 melanoma
  TGI: 27.3 µM
SK-MEL-28 melanoma
  TGI: 12.9 µM
SK-MEL-5 melanoma
  TGI: 26.3 µM
SK-OV-3 ovarian
  TGI: 11.8 µM
SN12C renal
  TGI: 12.2 µM
SNB-19 CNS
  TGI: 25.4 µM
SNB-75 CNS
  TGI: 17.6 µM
SR leukemia
  TGI: > 19.8 µM
SW-620 colon
  TGI: 9 µM
T-47D breast
  TGI: 14.7 µM
TK-10 renal
  TGI: 24 µM
U251 CNS
  TGI: 9.06 µM
UACC-257 melanoma
  TGI: 16.5 µM
UACC-62 melanoma
  TGI: 22.4 µM
UO-31 renal
  TGI: 24.8 µM
